# Assay results published in patent publication US20100080855A1, “HEDGEHOG SIGNALING AND CANCER STEM CELLS IN HEMATOPOIETIC CELL MALIGNANCIES” (THE BOARD OF TRUSTEES OF THE LELAND STANFORD JUNIOR …, priority 2008, published 2010).
# System: BCR-ABL1 driven leukemia
# Details: leukemias of mice treated with 25 mg/kg cyclopamine vs vehicle; flow cytometry lin-GFP+ c-Kit+Sca-1+
compound,measurement,value
CC1=C2C[C@H]3[C@@H](CC=C4C[C@@H](O)CC[C@@]43C)[C@@H]2CC[C@]12O[C@@H]1C[C@H](C)CN[C@H]1[C@H]2C [cyclopamine],reduction in the CML stem cell population,up to a fourteen-fold reduction
